Measured values reported in patent US7056491B2, “Monoterpenes and sesquiterpenes as chemotherapeutic and radiation sensitizers and immunomodulators” (Wisconsin Alumni Research Foundation, priority 2000, dated 2006).

Columns and labels:
[1] = tested on: rat mammary carcinoma; conditions: limonene, Haag et al.; cited from earlier work
[2] = rats, 10% limonene diet for 10 weeks; cited from earlier work
[3] = tested on: 21–26 kD proteins, including small GTP-binding proteins; conditions: dose dependent, distal to HMG-CoA reductase; cited from earlier work
[4] = tested on: T98G cells; experiment: Clonogenic survival, POH pretreatment then doxorubicin, T98G; assay type: cell-based, human; conditions: T98G
Description: Referring to FIG. 29, subconfluent cells of T98G cells were treated with varying concentrations of perillyl alcohol (0.1 mM–0.5 mM) for 48 hours and subsequently treated with the indicated dose of doxorubicin (0.01 uM–0.1 uM) for 48 hours. At the end of the treatment, POH-pretreated and untreated cells in the presence and absence of doxorubicin, were harvested, washed with PBS, plated at the desired cell number and incubated for two weeks. The colonies were stained with crystal violet and quantitated. Survival was determined as the ratio of plating efficiencies for each irradiated group to that of the untreated control. […] Doxorubicin at concentrations over 0.1 uM appeared to be toxic to the cells.

In the case of C=C(C)[C@H]1CC=C(C)CC1 [limonene], the “effect on advanced rat mammary carcinomas” value [1] is given as “regression of advanced rat mammary carcinomas”, the “plasma levels of terpene metabolites” value [2] is given as 270 µM and the “isoprenylation of 21–26 kD proteins” value [3] is given as “inhibit isoprenylation”.

With COc1cccc2c1C(=O)c1c(O)c3c(c(O)c1C2=O)C[C@@](O)(C(=O)CO)C[C@@H]3O[C@H]1C[C@H](N)[C@H](O)[C@H](C)O1 [Doxorubicin, reference compound] the “concentrations toxic to the cells” value [4] was “over 0.1 uM”.
